Experimental data published in patent US20230114728A1 (Venatorx Pharmaceuticals, Inc., priority 2019, published 2023).
≈ marks a conversion by molar mass, not a printed value.

Legend:
[1] = biological target: T1, P. aeruginosa PBP3 (Pseudomonas aeruginosa, UniProt G3XD46); assay: Bocillin-FL fluorescence polarization competition binding assay, P. aeruginosa PBP3; details: fluorescence polarization competition binding assay using Bocillin-FL
T1 construct: made in house
Text: Example I: Experimental Method for Penicillin-Binding Protein Binding Assays with Bocillin-FL Via Fluorescence Polarization
To determine the ability of boronic acid-based test PBP inhibitors to bind Penicillin Binding Proteins (PBPs), Bocillin-FL (fluorescently-labeled penicillin V; ThermoFisher Scientific) was used in a fluorescence polarization (FP) competition binding assay to assess inhibitor binding to PBP2, PBP3 or PBP4 from Escherichia coli (K12), PBP3 from Pseudomonas aeruginosa (PA01), PBP1a, PBP2 and PBP3 from Acinetobacter baumannii (ATCC 19606), and PBP2 from Neiserria gonorrheae (FA19). PBPs were cloned and purified as described previously (E. coli PBPs, King, D. T, et al., ACS Infectious Diseases 2015, 1, 175-184; P. aeruginosa PBP3, Han et. al., PNAS 2010, 107 (51), 22002-22007; A. baumannii PBPs, Penwell et. al., Antimicrob. Agents Chemother. 2015, 59 (3), 1680-1689; N. gonorrhoeae PBP2, Singh et. al., J Biol. Chem. 2019, 294 (38), 14020-14032). To establish assay conditions for competition binding, enzyme titration/saturation binding experiments were initially performed. Bocillin-FL was prepared at 0.2 μM in a buffer comprised of 50 mM Hepes (pH 8.0), 300 mM NaCl and 5% (v/v) glycerol for reactions with E. coli, P. aeruginosa and N. gonorrhoeae PBPs, and 25 mM Tris (pH 8.0), 200 mM NaCl and 10% (v/v) glycerol and 0.005% (v/v) Tween 20 for reactions with A. baumannii PBPs. Saturation binding was performed by mixing 40 μl of PBP solutions ranging in concentrations from 0-24 μM with 40 μl of the 0.2 μM Bocillin-FL solution, in individual wells of a black 384-well microplate. FP was measured immediately upon mixing (Excitation, 490 nm; Emission, 520 nm; g-factor, 0.96), using a Cytation3 (BioTek) microplate reader and measured continuously for up to 120 minutes. […] The competition binding assay (80 μl final volume) was validated using beta-lactams and PBPs at final concentrations of: 1.5 μM, E. coli PBP3; 0.75 μM, P. aeruginosa PBP3; 1 μM A. baumannii PBP1a; 2.5 μM A. baumannii PBP2; 0.2 μM A. baumannii PBP3; and […] N. gonorrhoeae PBP2. Bocillin-FL was at 0.1 μM (0.05 μM with A. baumannii PBP1a) and beta-lactam concentrations ranged from 0-1000 μM. […] Bocillin-FL was added and the FP immediately measured for up to 60 minutes (90 minutes for E. coli PBP2). […] The beta-lactam potency was reported as the concentration of beta-lactam required to reduce the amount of PBP bound-Bocillin-FL by 50% (EC50). […] Binding assays for boronic acid PBP inhibitors were performed in an identical fashion for the respective PBPs

[2] = test system: A. baumannii ATCC 19606; assay: Broth microdilution MIC in CAMHB; type: cell-based; details: Acinetobacter baumannii, ATCC19606; MHB; read-out: Minimum Inhibitory Concentration, A. baumannii ATCC 19606
Procedure: (§1) Example III: In Vitro Antibacterial Assays
(§2) To determine the ability of test compounds to inhibit the growth of bacterial strains, classic cell based broth microdilution minimum inhibitory concentration (MIC) assays were employed. MIC assays are performed according to CLSI methods except where otherwise noted (CLSI, 2018 and CLSI, 2019). The reference type strain E. coli ATCC 25922; the wild-type parent strain E. coli AG100; the hyper-permeable E. coli 901C and E. coli D22; and the E. coli AG100A strain lacking the acrAB efflux pump encoding genes were used to determine the ability of the PBP inhibitors to penetrate the outer membrane of gram-negative bacteria and inhibit bacterial growth. […] The P. aeruginosa ATCC 27853 and A. baumannii ATCC 19606, along with the hyper-permeable P. aeruginosa ATCC 35151 and an engineered efflux pump-compromised strain of P. aeruginosa (ΔmexAB-oprM) were used to determine the ability of PBP inhibitors to penetrate the outer membrane of P. aeruginosa and A. baumannii and assess antibacterial activity against these important gram-negative organisms.
(§3) Briefly, cryo-preserved bacterial cultures of challenge strains are streaked for isolation on appropriate agar medium, in this case cation-adjusted Mueller Hinton agar. Following incubation to allow growth of the colonies, plates are sealed with parafilm and stored refrigerated for up to two weeks. For preparation of assay inoculum and to ensure low variability, at least 5 colonies are picked from the agar plates with an inoculating loop and aseptically transferred to a culture tube containing 3 mL of cation-adjusted Mueller Hinton broth (CAMHB). The broth culture is grown for 3-5 hours at 37° C. with shaking at 200 rpm. Meanwhile, 2-fold serial dilutions of test compounds are conducted in a 96-well plate with a final volume of 75 μL per well at 2-fold the final desired concentration. After the dilution plates are set up the growing cultures are then diluted in a cuvette containing CAMHB and the optical density is measured at 600 nm. The inoculum is diluted such that 75 μL of this culture in CAMHB results in a starting bacterial concentration of 2-8×10^5 CFU/mL when added to the dilution plates. The plates are incubated for 16-20 hours for Enterobacteriaceae and Pseudomonas and 20-24 hours for Acinetobacter at 37° C. The MIC values are read visually as the lowest concentration well with no bacterial growth.

[3] = test system: E. coli 901C; assay: Broth microdilution MIC in CAMHB; type: cell-based; details: Escherichia coli; MHB; hyper-permeable E. coli 901C; read-out: Minimum Inhibitory Concentration, E. coli 901C
Procedure: as §1, §2, §3

[4] = test system: E. coli AG100A; assay: Broth microdilution MIC in CAMHB; type: cell-based; details: Escherichia coli, read-out: Minimum Inhibitory Concentration, E. coli AG100A
Procedure: as §1, §2, §3

[5] = test system: E. coli AG100; assay: Broth microdilution MIC in CAMHB; type: cell-based; details: Escherichia coli; MHB; wild-type parent strain E. coli AG100; read-out: Minimum Inhibitory Concentration, E. coli AG100
Procedure: as §1, §2, §3

[6] = test system: E. coli ATCC 25922; assay: Broth microdilution MIC in CAMHB; type: cell-based; details: Escherichia coli, ATCC25922; MHB; E. coli ATCC 25922; read-out: Minimum Inhibitory Concentration, E. coli 25922
Procedure: as §1, §2, §3

[7] = test system: E. coli D22; assay: Broth microdilution MIC in CAMHB; type: cell-based; details: Escherichia coli; MHB; hyper-permeable E. coli D22; read-out: Minimum Inhibitory Concentration, E. coli D22
Procedure: as §1, §2, §3

[8] = test system: K. pneumoniae 848844 producing SHV-11 and KPC-2; assay: Broth microdilution MIC in CAMHB; type: cell-based; details: Klebsiella pneumoniae, read-out: Minimum Inhibitory Concentration, K. pneumoniae 848844
Procedure: as §1, §2, §3

[9] = test system: K. pneumoniae SI-117 producing VIM-1; assay: Broth microdilution MIC in CAMHB; type: cell-based; details: Klebsiella pneumoniae, read-out: Minimum Inhibitory Concentration, K. pneumoniae SI-117
Procedure: as §1, §2, §3

[10] = test system: K. pneumoniae UMM producing SHV-5 and KPC-2; assay: Broth microdilution MIC in CAMHB; type: cell-based; details: Klebsiella pneumoniae, read-out: Minimum Inhibitory Concentration, K. pneumoniae UMM
Procedure: as §1, §2, §3

[11] = test system: P. aeruginosa (ΔmexAB-oprM); assay: Broth microdilution MIC in CAMHB; type: cell-based; details: Pseudomonas aeruginosa, read-out: Minimum Inhibitory Concentration, P. aeruginosa ΔmexAB-OprM
Procedure: as §1, §2, §3

[12] = test system: P. aeruginosa ATCC 27853; assay: Broth microdilution MIC in CAMHB; type: cell-based; details: Pseudomonas aeruginosa, ATCC27853; MHB; read-out: Minimum Inhibitory Concentration, P. aeruginosa ATCC 27853
Procedure: as §1, §2, §3

[13] = test system: P. aeruginosa ATCC 35151; assay: Broth microdilution MIC in CAMHB; type: cell-based; details: Pseudomonas aeruginosa, ATCC35151; MHB; hyper-permeable strain; read-out: Minimum Inhibitory Concentration, P. aeruginosa ATCC 35151
Procedure: as §1, §2, §3

T1 sequence (G3XD46 whole entry): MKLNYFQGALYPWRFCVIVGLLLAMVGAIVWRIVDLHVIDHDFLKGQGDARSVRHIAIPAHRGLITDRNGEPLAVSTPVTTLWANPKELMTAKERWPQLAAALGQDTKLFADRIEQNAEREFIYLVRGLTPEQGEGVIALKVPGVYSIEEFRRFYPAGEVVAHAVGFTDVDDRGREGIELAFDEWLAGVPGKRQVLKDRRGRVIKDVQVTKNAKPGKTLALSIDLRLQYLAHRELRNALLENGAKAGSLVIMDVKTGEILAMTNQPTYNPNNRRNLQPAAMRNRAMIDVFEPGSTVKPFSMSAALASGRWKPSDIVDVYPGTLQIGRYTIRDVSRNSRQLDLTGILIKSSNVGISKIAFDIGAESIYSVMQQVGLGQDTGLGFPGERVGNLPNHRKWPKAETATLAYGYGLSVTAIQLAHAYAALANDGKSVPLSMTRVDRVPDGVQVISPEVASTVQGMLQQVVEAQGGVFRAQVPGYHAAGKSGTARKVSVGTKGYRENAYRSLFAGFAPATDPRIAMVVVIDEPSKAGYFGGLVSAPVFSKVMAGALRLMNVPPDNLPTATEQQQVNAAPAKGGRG

Row | SMILES | P. aeruginosa PBP3 Potency [1] | MIC [2] [µg/mL] | MIC [3] [µg/mL] | MIC [4] [µg/mL] | MIC [5] [µg/mL] | MIC [6] [µg/mL] | MIC [7] [µg/mL] | MIC [8] [µg/mL] | MIC [9] [µg/mL] | MIC [10] [µg/mL] | MIC [11] [µg/mL] | MIC [12] [µg/mL] | MIC [13] [µg/mL]
1 | NCCN1CCN(C(=O)N[C@@H](C(=O)N[C@H]2Cc3cccc(C(=O)O)c3OB2O)c2c(F)cccc2F)C(=O)C1=O (single isomer, unassigned) [Example 223] | D (D represents a potency <10 μM) | > 128 | > 128 | > 128 | > 128 | > 128 | > 128 | > 128 | 8 to 16 (≈ 14.3 to 28.6 µM) | 2 to 4 (≈ 3.58 to 7.15 µM) | 32 to 64 (≈ 57.2 to 114 µM) | > 128 | 2 to 4 (≈ 3.58 to 7.15 µM)
2 | NCCN1CCN(C(=O)N[C@@H](C(=O)N[C@H]2Cc3cccc(C(=O)O)c3OB2O)c2c(Cl)cccc2Cl)C(=O)C1=O (single isomer, unassigned) [Example 224] | B (B represents a potency between 30 μM and 500 μM inclusive) | > 128 | > 128 | > 128 | > 128 | > 128 | > 128 | > 128 | > 128 | 8 to 16 (≈ 13.5 to 27 µM) | > 128 | > 128 | 32 to 64 (≈ 54 to 108 µM)
3 | NCCCN1CCN(C(=O)N[C@@H](C(=O)N[C@H]2Cc3cccc(C(=O)O)c3OB2O)c2ccc(O)c(F)c2F)C(=O)C1=O (single isomer, unassigned) [Example 238] | D (D represents a potency <10 μM) | > 128 | 32 to 64 (≈ 54.3 to 109 µM) | 32 to 64 (≈ 54.3 to 109 µM) | 32 to 64 (≈ 54.3 to 109 µM) | 2 to 4 (≈ 3.39 to 6.79 µM) | 8 to 16 (≈ 13.6 to 27.2 µM) | 8 to 16 (≈ 13.6 to 27.2 µM) | 0.5 to 1 (≈ 0.848 to 1.7 µM) | < 0.25 | 2 to 4 (≈ 3.39 to 6.79 µM) | 32 to 64 (≈ 54.3 to 109 µM) | < 0.25
4 | NCCCN1CCN(C(=O)N[C@H](C(=O)N[C@H]2Cc3cccc(C(=O)O)c3OB2O)c2ccc(O)c(F)c2F)C(=O)C1=O (single isomer, unassigned) [Example 239] | C (C represents a potency between 10 and 30 μM) | > 128 | > 128 | > 128 | > 128 | > 128 | > 128 | > 128 | 8 to 16 (≈ 13.6 to 27.2 µM) | 2 to 4 (≈ 3.39 to 6.79 µM) | 8 to 16 (≈ 13.6 to 27.2 µM) | > 128 | 2 to 4 (≈ 3.39 to 6.79 µM)
5 | CCN1C[C@H](C)N(C(=O)N[C@@H](C(=O)N[C@H]2Cc3cccc(C(=O)O)c3OB2O)c2ccc(O)c(F)c2F)C(=O)C1=O [Example 240, (3R)-3-(2-(2,3-difluoro-4-hydroxyphenyl)-2-((S)-4-ethyl-6-methyl-2,3-dioxopiperazine-1-carboxamido)acetamido)-2-hydroxy-3,4-dihydro-2H-benzo[e][1,2]oxaborinine-8-carboxylic acid] | D (D represents a potency <10 μM) | > 128 | > 128 | 32 to 64 (≈ 55.7 to 111 µM) | > 128 | 32 to 64 (≈ 55.7 to 111 µM) | 32 to 64 (≈ 55.7 to 111 µM) | 32 to 64 (≈ 55.7 to 111 µM) | 2 to 4 (≈ 3.48 to 6.96 µM) | < 0.25 | 8 to 16 (≈ 13.9 to 27.9 µM) | > 128 | 2 to 4 (≈ 3.48 to 6.96 µM)
